Laboratory results as given in patent US10100097B2, “GIP-GLP-1 dual agonist compounds and methods” (Zealand Pharma A/S, priority 2012, dated 2018).
Like-named read-outs stand apart in the source and are kept apart here. Values belong to the compound of their own block, whether it stands above or below them. Numbered stars: 1 amine (or outer) side, 2 acyl side, 3 side chain; on linkers, the order of the positions; unused ones are H or OH. Square brackets hold non-standard residues; d marks the D form. Side chains are listed from the residue outwards. Peptide text beside a SMILES is read from it. * marks the point of attachment. γGlu = O=C(O)[C@H](CCC(=O)[*:2])N[*:1]; Palmitoyl = CCCCCCCCCCCCCCCC(=O)*; Aib = CC(C)(N)C(=O)O

Tests used:
[1] = molecular target: T1, human GIP R (Homo sapiens, UniProt P48546); assay: Human GIP receptor (GIP R) activity assay, cAMP induction (AlphaScreen cAMP kit); type: cell-based
T1 construct: expressed in transfected cells
T1 sequence (P48546 22-466): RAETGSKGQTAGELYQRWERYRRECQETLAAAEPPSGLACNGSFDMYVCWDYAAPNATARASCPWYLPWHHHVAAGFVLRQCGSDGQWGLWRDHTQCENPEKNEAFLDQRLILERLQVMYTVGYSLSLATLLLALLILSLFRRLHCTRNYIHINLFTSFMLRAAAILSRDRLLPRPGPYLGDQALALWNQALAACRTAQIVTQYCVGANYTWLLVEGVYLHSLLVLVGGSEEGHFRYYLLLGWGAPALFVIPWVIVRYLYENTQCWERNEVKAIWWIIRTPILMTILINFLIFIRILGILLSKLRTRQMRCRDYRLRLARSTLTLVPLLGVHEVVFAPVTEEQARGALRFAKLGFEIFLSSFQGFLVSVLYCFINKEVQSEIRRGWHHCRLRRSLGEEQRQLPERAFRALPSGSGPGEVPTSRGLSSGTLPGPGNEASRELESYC
Protocol: (§1) Human GIP Receptor (GIP R) and GLP-1 Receptor (GLP-1 R) Activity Assay
(§2) In vitro effects of peptide conjugates of the invention were assessed by measuring the induction of cAMP following stimulation of the respective receptor by GIP, GLP1 or analogues of these, as outlined in the invention, using the AlphaSceen® cAMP kit from Perkin-Elmer according to instructions. Briefly. HEK293 cells expressing the human GIP R or GLP-1 R (stable cell lines generated through transfection of the cDNA for human GIP R or GLP-1 and selection of stable clones) were seeded at 30,000 cells/well in 96-well microtiter plates coated with 0.01% poly-L-lysine, and grown for 1 day in culture in 200 μl growth medium (DMEM, 10% FCS, Penicillin (100 IU/ml), Streptomycin (100 μg/ml)). On the day of analysis, growth medium was removed and the cells were washed once with […] Tyrode's buffer (Tyrode's Salts (9.6 g/1), 10 mM HEPES, pH 7.4). […] The Assay buffer was removed and cells are lysed in 80 μl Lysis buffer (0.1% w/v BSA, 5 mM HEPES, 0.3% v/v Tween-20) per well. From each well 10 μl lysed cells was transferred to a 384-well plate and mixed with 15 μl bead-mix (1 Unit/15 μl anti-cAMP Acceptor Beads, 1 Unit/15 μl Donor Beads, and 1 Unit/15 μl Biotinylated cAMP in Assay Buffer). The plates were mixed and incubated in the dark for an hour at room temperature before measuring using an Envision™ plate reader (Perkin-Elmer).

[2] = molecular target: T2, human GLP-1 R (Homo sapiens, UniProt P43220); assay: Human GLP-1 receptor (GLP-1 R) activity assay, cAMP induction (AlphaScreen cAMP kit); type: cell-based; details: HEK293 cells expressing the human GLP-1 R, 15 min at 37° C., average values of multiple determinations, read-out: GLP1 R (EC50 in nM)
T2 construct: expressed in transfected cells
T2 sequence (P43220 24-463): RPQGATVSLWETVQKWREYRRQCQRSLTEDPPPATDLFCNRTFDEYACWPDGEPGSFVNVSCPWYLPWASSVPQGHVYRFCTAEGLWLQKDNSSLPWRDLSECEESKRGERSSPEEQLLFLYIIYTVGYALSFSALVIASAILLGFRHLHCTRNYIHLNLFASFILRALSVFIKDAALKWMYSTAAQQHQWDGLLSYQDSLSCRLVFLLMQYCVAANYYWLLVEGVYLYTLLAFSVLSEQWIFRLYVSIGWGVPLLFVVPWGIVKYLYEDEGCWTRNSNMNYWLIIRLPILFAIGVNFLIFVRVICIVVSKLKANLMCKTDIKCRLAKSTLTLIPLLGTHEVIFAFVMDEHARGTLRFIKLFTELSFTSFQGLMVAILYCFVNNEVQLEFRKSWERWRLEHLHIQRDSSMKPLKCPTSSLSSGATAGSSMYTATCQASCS
Protocol: as §1, §2

[3] = HEK293 cells expressing the human GIP R, cAMP induction, 15 min at 37° C., average values of multiple determinations, read-out: GIP R (EC50 in nM)

Structure (SMILES): CC[C@H](C)[C@H](NC(=O)[C@H](CCCCN)NC(=O)[C@H](CCC(=O)O)NC(=O)[C@H](CC(C)C)NC(=O)[C@H](Cc1ccc(O)cc1)NC(=O)[C@@H](NC(=O)[C@H](CO)NC(=O)[C@H](Cc1ccc(O)cc1)NC(=O)[C@H](CC(=O)O)NC(=O)[C@H](CO)NC(=O)[C@@H](NC(=O)[C@H](Cc1ccccc1)NC(=O)[C@@H](NC(=O)CNC(=O)[C@H](CCC(=O)O)NC(=O)C(C)(C)NC(=O)[C@@H](N)Cc1ccc(O)cc1)[C@@H](C)O)[C@@H](C)CC)[C@@H](C)CC)C(=O)N[C@@H](C)C(=O)N[C@@H](C)C(=O)N[C@@H](CCCCN)C(=O)N[C@@H](CCC(=O)O)C(=O)N[C@@H](Cc1ccccc1)C(=O)N[C@H](C(=O)N[C@@H](CC(N)=O)C(=O)N[C@@H](Cc1c[nH]c2ccccc12)C(=O)N[C@@H](CC(C)C)C(=O)N[C@@H](CC(C)C)C(=O)N[C@@H](C)C(=O)N[C@@H](CCC(N)=O)C(=O)N[C@@H](CCCCN)C(N)=O)C(C)C [Compound 4] (H-Y[Aib]EGTFISDYSIYLEKIAAKEFVNWLLAQK-NH2)
- EC50 [1]: 0.022 nM

Structure (SMILES): CC[C@H](C)[C@H](NC(=O)[C@H](CO)NC(=O)[C@H](Cc1ccc(O)cc1)NC(=O)[C@H](CC(=O)O)NC(=O)[C@H](CO)NC(=O)[C@@H](NC(=O)[C@H](Cc1ccccc1)NC(=O)[C@@H](NC(=O)CNC(=O)[C@H](CCC(=O)O)NC(=O)C(C)(C)NC(=O)[C@@H](N)Cc1ccc(O)cc1)[C@@H](C)O)[C@@H](C)O)C(=O)N[C@@H](Cc1ccc(O)cc1)C(=O)N[C@@H](CO)C(=O)N[C@@H](CC(=O)O)C(=O)N[C@@H](CCCCN)C(=O)N[C@@H](CCCCN)C(=O)N[C@@H](C)C(=O)N[C@@H](CCC(N)=O)C(=O)N[C@@H](CCCNC(=N)N)C(=O)N[C@@H](C)C(=O)N[C@@H](Cc1ccccc1)C(=O)N[C@H](C(=O)N[C@@H](CC(N)=O)C(=O)N[C@@H](Cc1c[nH]c2ccccc12)C(=O)N[C@@H](CC(C)C)C(=O)N[C@@H](CC(C)C)C(=O)N[C@@H](C)C(=O)NC(C)(C)C(=O)N[C@@H](CCCCN)C(N)=O)C(C)C [Compound 13] (H-Y[Aib]EGTFTSDYSIYSDKKAQRAFVNWLLA[Aib]K-NH2)
- EC50 [1, 3]: 0.14 nM

Structure (SMILES): CC[C@H](C)[C@H](NC(=O)[C@H](CO)NC(=O)[C@H](Cc1ccc(O)cc1)NC(=O)[C@H](CC(=O)O)NC(=O)[C@H](CO)NC(=O)[C@@H](NC(=O)[C@H](Cc1ccccc1)NC(=O)[C@@H](NC(=O)CNC(=O)[C@H](CCC(=O)O)NC(=O)C(C)(C)NC(=O)[C@@H](N)Cc1ccc(O)cc1)[C@@H](C)O)[C@@H](C)O)C(=O)N[C@@H](Cc1ccc(O)cc1)C(=O)N[C@@H](CC(C)C)C(=O)N[C@@H](CC(=O)O)C(=O)N[C@@H](CCCCN)C(=O)N[C@@H](CCCCN)C(=O)N[C@@H](C)C(=O)N[C@@H](CCC(N)=O)C(=O)N[C@@H](CCCCN)C(=O)N[C@@H](CCC(=O)O)C(=O)N[C@@H](Cc1ccccc1)C(=O)N[C@H](C(=O)N[C@@H](CC(N)=O)C(=O)N[C@@H](Cc1c[nH]c2ccccc12)C(=O)N[C@@H](CC(C)C)C(=O)N[C@@H](CC(C)C)C(=O)N[C@@H](C)C(=O)NC(C)(C)C(=O)N[C@@H](CCCCN)C(N)=O)C(C)C [Compound 19] (H-Y[Aib]EGTFTSDYSIYLDKKAQKEFVNWLLA[Aib]K-NH2)
- EC50 [1, 3]: 0.015 nM

Structure (SMILES): CCCCCCCCCCCCCCCC(=O)N[C@@H](CCC(=O)NCCCC[C@H](NC(=O)[C@H](CO)NC(=O)[C@H](CC(=O)O)NC(=O)[C@H](CC(C)C)NC(=O)[C@H](Cc1ccc(O)cc1)NC(=O)[C@H](CCCCN)NC(=O)[C@H](CO)NC(=O)[C@H](Cc1ccc(O)cc1)NC(=O)[C@H](CC(=O)O)NC(=O)[C@H](CO)NC(=O)[C@@H](NC(=O)[C@H](Cc1ccccc1)NC(=O)[C@@H](NC(=O)CNC(=O)[C@H](CCC(=O)O)NC(=O)C(C)(C)NC(=O)[C@@H](N)Cc1ccc(O)cc1)[C@@H](C)O)[C@@H](C)O)C(=O)N[C@@H](C)C(=O)N[C@@H](C)C(=O)N[C@@H](Cc1c[nH]cn1)C(=O)N[C@@H](CC(=O)O)C(=O)N[C@@H](Cc1ccccc1)C(=O)N[C@H](C(=O)N[C@@H](CCC(=O)O)C(=O)N[C@@H](Cc1c[nH]c2ccccc12)C(=O)N[C@@H](CC(C)C)C(=O)N[C@@H](CC(C)C)C(=O)N[C@@H](CO)C(=O)N[C@@H](C)C(N)=O)C(C)C)C(=O)O [Compound 45] (H-Y[Aib]EGTFTSDYSKYLDSK([γGlu-Palmitoyl])AAHDFVEWLLSA-NH2)
- EC50 [2]: 0.11 nM

Structure (SMILES): CC[C@H](C)[C@H](NC(=O)[C@H](CO)NC(=O)[C@H](Cc1ccc(O)cc1)NC(=O)[C@H](CC(=O)O)NC(=O)[C@H](CO)NC(=O)[C@@H](NC(=O)[C@H](Cc1ccccc1)NC(=O)[C@@H](NC(=O)CNC(=O)[C@H](CCC(=O)O)NC(=O)C(C)(C)NC(=O)[C@@H](N)Cc1ccc(O)cc1)[C@@H](C)O)[C@@H](C)O)C(=O)N[C@@H](Cc1ccc(O)cc1)C(=O)N[C@@H](CC(C)C)C(=O)N[C@@H](CC(=O)O)C(=O)N[C@@H](CO)C(=O)N[C@@H](CCCCN)C(=O)N[C@@H](C)C(=O)N[C@@H](C)C(=O)N[C@@H](Cc1c[nH]cn1)C(=O)N[C@@H](CC(=O)O)C(=O)N[C@@H](Cc1ccccc1)C(=O)N[C@H](C(=O)N[C@@H](CCC(=O)O)C(=O)N[C@@H](Cc1c[nH]c2ccccc12)C(=O)N[C@@H](CC(C)C)C(=O)N[C@@H](CC(C)C)C(=O)N[C@@H](CO)C(=O)N[C@@H](C)C(=O)NCC(=O)N1CCC[C@H]1C(=O)N[C@@H](CO)C(=O)N[C@@H](CO)C(=O)NCC(=O)N[C@@H](C)C(=O)N1CCC[C@H]1C(=O)N1CCC[C@H]1C(=O)N1CCC[C@H]1C(=O)N[C@@H](CO)C(N)=O)C(C)C [Compound 55] (H-Y[Aib]EGTFTSDYSIYLDSKAAHDFVEWLLSAGPSSGAPPPS-NH2)
- EC50 [2]: 0.0087 nM

The next lines start with the values.

- EC50 [2]: 0.041 nM
Structure (SMILES): CCCCCCCCCCCCCCCC(=O)N[C@@H](CCC(=O)NCCCC[C@H](NC(=O)[C@H](CCC(=O)O)NC(=O)[C@H](CC(=O)O)NC(=O)[C@H](CC(C)C)NC(=O)[C@H](Cc1ccc(O)cc1)NC(=O)[C@@H](NC(=O)[C@H](CO)NC(=O)[C@H](Cc1ccc(O)cc1)NC(=O)[C@H](CC(=O)O)NC(=O)[C@H](CO)NC(=O)[C@@H](NC(=O)[C@H](Cc1ccccc1)NC(=O)[C@@H](NC(=O)CNC(=O)[C@H](CCC(=O)O)NC(=O)C(C)(C)NC(=O)[C@@H](N)Cc1ccc(O)cc1)[C@@H](C)O)[C@@H](C)O)[C@@H](C)CC)C(=O)N[C@@H](C)C(=O)N[C@@H](C)C(=O)N[C@@H](CCCCN)C(=O)N[C@@H](CC(=O)O)C(=O)N[C@@H](Cc1ccccc1)C(=O)N[C@H](C(=O)N[C@@H](CCC(=O)O)C(=O)N[C@@H](Cc1c[nH]c2ccccc12)C(=O)N[C@@H](CC(C)C)C(=O)N[C@@H](CCC(=O)O)C(=O)N[C@@H](CO)C(=O)N[C@@H](C)C(N)=O)C(C)C)C(=O)O [Compound 48] (H-Y[Aib]EGTFTSDYSIYLDEK([γGlu-Palmitoyl])AAKDFVEWLESA-NH2)

- EC50 [2]: 0.11 nM
Structure (SMILES): CCCCCCCCCCCCCCCC(=O)N[C@@H](CCC(=O)NCCCC[C@H](NC(=O)[C@H](CO)NC(=O)[C@H](CC(=O)O)NC(=O)[C@H](CC(C)C)NC(=O)[C@H](Cc1ccc(O)cc1)NC(=O)[C@H](CCCCN)NC(=O)[C@H](CO)NC(=O)[C@H](Cc1ccc(O)cc1)NC(=O)[C@H](CC(=O)O)NC(=O)[C@H](CO)NC(=O)[C@@H](NC(=O)[C@H](Cc1ccccc1)NC(=O)[C@@H](NC(=O)CNC(=O)[C@H](CCC(=O)O)NC(=O)C(C)(C)NC(=O)[C@@H](N)Cc1ccc(O)cc1)[C@@H](C)O)[C@@H](C)O)C(=O)N[C@@H](C)C(=O)N[C@@H](C)C(=O)N[C@@H](Cc1c[nH]cn1)C(=O)N[C@@H](CC(=O)O)C(=O)N[C@@H](Cc1ccccc1)C(=O)N[C@H](C(=O)N[C@@H](CCC(=O)O)C(=O)N[C@@H](Cc1c[nH]c2ccccc12)C(=O)N[C@@H](CC(C)C)C(=O)N[C@@H](CC(C)C)C(=O)N[C@@H](CCCNC(=N)N)C(=O)N[C@@H](C)C(N)=O)C(C)C)C(=O)O [Compound 51] (H-Y[Aib]EGTFTSDYSKYLDSK([γGlu-Palmitoyl])AAHDFVEWLLRA-NH2)
